Assay in all cases: relative viability (nuclei count vs DMSO), 5 days (fraction); higher = more cells survive
Compound in assay [1]: CC1=CC(=CC=C1)NC2=NC(=CS2)C3=CC=NC=C3
In a few lines: (§1)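 Hoechst staining, done together with fixation and permeabilisation, marked nuclei for 4× imaging and MetaXpress counting. This followed 5 days without medium change after lung cancer cell lines, kept overnight at 37 °C in 1536-well plates, were pinned with five library-drug doses (not always all listed) spaced by √10 on vehicle-anchored plates. Viability is the ratio of treated-well to vehicle-well nuclei, expressed as a median across plates. Plates passed only at control CV below 25% with at least one doubling.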

Compound in the next assay: Cc1ccc(NC(=O)c2ccc(CN3CCN(C)CC3)cc2)cc1Nc1nc(-c2cccnc2)cs1 [Masitinib]
In outline:
as §1

Compound in the assay “Masitinib + Navitoclax”: Cc1ccc(NC(=O)c2ccc(CN3CCN(C)CC3)cc2)cc1Nc1nc(-c2cccnc2)cs1 [Masitinib] + CC1(C)CCC(c2ccc(Cl)cc2)=C(CN2CCN(c3ccc(C(=O)NS(=O)(=O)c4ccc(N[C@H](CCN5CCOCC5)CSc5ccccc5)c(S(=O)(=O)C(F)(F)F)c4)cc3)CC2)C1 [Navitoclax] (partner 0.5 µM)
In outline:
(§2)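 One day after seeding in 1536-well plates, lung cancer cell lines were dosed by pin tool. Dosing was either single-drug or a fixed anchor-drug dose plus five library-drug doses (not always all listed) in √10 steps. After 5 days, nuclei were stained in one fix-and-stain step and counted on 4× images, and relative viability is the nuclei count of treated wells over that of vehicle wells, given as the median of duplicate plates.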

Compound in assay [2]: CC1=CC(=CC=C1)NC2=NC(=CS2)C3=CC=NC=C3 + CC(=O)Nc1cccc(-n2c(=O)n(C3CC3)c(=O)c3c(Nc4ccc(I)cc4F)n(C)c(=O)c(C)c32)c1 [Trametinib] (partner 0.02 µM)
In outline: as §2

Here are results for four cell lines from the supplement of paper PMC10307832.

For the cell line EPLC-272H, the relative viability in assay [1] (0.08 µM) stood at 0.856; in assay [1] (0.253 µM), 0.793; in assay [1] (0.8 µM), 0.813; in assay [1] (2.53 µM), 0.732; in assay [1] (8 µM) it was 0.958; with Masitinib (0.01 µM), 0.887. Also, the relative viability with Masitinib (0.03162 µM) stood at 0.788; with Masitinib (0.1 µM), 0.962; in the assay with Masitinib (0.3162 µM), 0.866; with Masitinib (1 µM), 0.815; with Masitinib + Navitoclax (first compound 0.01 µM), 1.08; with Masitinib + Navitoclax (first compound 0.03162 µM), 1.13. The relative viability stood at 1.08 in the assay with Masitinib + Navitoclax (first compound 0.1 µM); 1.23 with Masitinib + Navitoclax (first compound 0.3162 µM); 1.06 in the assay with Masitinib + Navitoclax (first compound 1 µM); 0.308 in assay [2] (first compound 0.08 µM); 0.271 in assay [2] (first compound 0.253 µM); 0.296 in assay [2] (first compound 0.8 µM). In addition, the relative viability in assay [2] (first compound 8 µM) was found to be 0.277.
On to NCI-H1975, for which the relative viability in assay [1] (0.08 µM) was 0.798; in assay [1] (0.253 µM) it was 0.762; in assay [1] (0.8 µM) it was 0.843; in assay [1] (2.53 µM), 0.714; in assay [1] (8 µM) it was 0.549; with Masitinib (0.01 µM), 0.983. For the same cell line, the relative viability stood at 0.923 in the assay with Masitinib (0.03162 µM); 1.06 in the assay with Masitinib (0.1 µM); 0.676 with Masitinib (0.3162 µM); 0.852 in the assay with Masitinib (1 µM); 1.15 with Masitinib + Navitoclax (first compound 0.01 µM); 1.09 with Masitinib + Navitoclax (first compound 0.03162 µM). Moreover, the relative viability in the assay with Masitinib + Navitoclax (first compound 0.1 µM) worked out at 1.14; with Masitinib + Navitoclax (first compound 0.3162 µM), 0.92; with Masitinib + Navitoclax (first compound 1 µM), 1.01; in assay [2] (first compound 0.08 µM), 0.294; in assay [2] (first compound 0.253 µM), 0.274; in assay [2] (first compound 0.8 µM), 0.335. Moreover, the values for the relative viability in assay [2] (first compound 2.53 µM) and in assay [2] (first compound 8 µM) were 0.263 and 0.193, respectively.
As to NCI-H3122, the relative viability in assay [1] (0.08 µM) came out at 0.983; in assay [1] (0.253 µM), 1.05; in assay [1] (0.8 µM), 1.04; in assay [1] (2.53 µM) it was 1.06; in assay [1] (8 µM), 0.972; in the assay with Masitinib (0.01 µM) it was 0.854. The relative viability in the assay with Masitinib (0.03162 µM) was 1.03; in the assay with Masitinib (0.1 µM), 0.959; with Masitinib (0.3162 µM) it was 1; with Masitinib (1 µM) it was 1.08; with Masitinib + Navitoclax (first compound 0.01 µM), 1.03; in the assay with Masitinib + Navitoclax (first compound 0.03162 µM), 1.04. Besides, the relative viability turned out to be 1.04 with Masitinib + Navitoclax (first compound 0.1 µM); 1.09 in the assay with Masitinib + Navitoclax (first compound 0.3162 µM); 1.04 with Masitinib + Navitoclax (first compound 1 µM); 0.204 in assay [2] (first compound 0.08 µM); 0.25 in assay [2] (first compound 0.253 µM); 0.307 in assay [2] (first compound 0.8 µM). Besides, the relative viability was found to be 0.321 in assay [2] (first compound 2.53 µM) and 0.414 in assay [2] (first compound 8 µM).
Consider NCI-H441, for which the relative viability in assay [1] (0.08 µM) turned out to be 0.957; in assay [1] (0.253 µM), 1; in assay [1] (0.8 µM), 1.01; in assay [1] (2.53 µM), 0.922; in assay [1] (8 µM) it was 0.866; with Masitinib (0.01 µM) it was 1.01. Further, the relative viability was determined as 0.956 in the assay with Masitinib (0.03162 µM); 1.09 in the assay with Masitinib (0.1 µM); 1.25 with Masitinib (0.3162 µM); 1.07 in the assay with Masitinib (1 µM); 0.782 in the assay with Masitinib + Navitoclax (first compound 0.01 µM); 0.78 with Masitinib + Navitoclax (first compound 0.03162 µM). Besides, the relative viability is 0.522 with Masitinib + Navitoclax (first compound 0.1 µM); 0.749 in the assay with Masitinib + Navitoclax (first compound 0.3162 µM); 0.602 in the assay with Masitinib + Navitoclax (first compound 1 µM); 0.363 in assay [2] (first compound 0.08 µM); 0.418 in assay [2] (first compound 0.253 µM); 0.623 in assay [2] (first compound 0.8 µM). Further, the relative viability in assay [2] (first compound 2.53 µM) worked out at 0.348; in assay [2] (first compound 8 µM), 0.349.
